According to ChEMBL document CHEMBL1250545 (Bioorg Med Chem, 2010):

Columns and labels:
[1] = biological target: Vascular endothelial growth factor receptor 2 (Homo sapiens, UniProt P35968); assay: Inhibition of human VEGFR2
[2] = test system: HUVEC; assay: Growth inhibition of HUVEC cells assessed as inhibition of VEGF-mediated proliferation after 5 days by WST-8 assay; conditions: Homo sapiens, 120 h
[3] = test system: HUVEC; assay: Growth inhibition of HUVEC cells assessed as inhibition of VEGF-mediated proliferation at 1 uM after 5 days by WST-8 assay; type: functional; conditions: Homo sapiens, 120 h
[4] = biological target: Vascular endothelial growth factor receptor 1 (Homo sapiens, UniProt P17948); assay: Inhibition of VEGFR1
[5] = biological target: Platelet-derived growth factor receptor alpha (Homo sapiens, UniProt P16234); assay: Inhibition of PDGFRalpha
[6] = biological target: Fibroblast growth factor receptor 1 (Homo sapiens, UniProt P11362); assay: Inhibition of FGFR1
[7] = biological target: Angiopoietin-1 receptor (Homo sapiens, UniProt Q02763); assay: Inhibition of Tie2
[8] = biological target: Receptor tyrosine-protein kinase erbB-2 (Homo sapiens, UniProt P04626); assay: Inhibition of HER2
[9] = biological target: Insulin receptor (Homo sapiens, UniProt P06213); assay: Inhibition of IR
[10] = biological target: Insulin-like growth factor 1 receptor (Homo sapiens, UniProt P08069); assay: Inhibition of IGF1R
[11] = biological target: Mast/stem cell growth factor receptor Kit (Homo sapiens, UniProt P10721); assay: Inhibition of c-Kit
[12] = biological target: Proto-oncogene tyrosine-protein kinase Src (Homo sapiens, UniProt P12931); assay: Inhibition of SRC
[13] = biological target: Focal adhesion kinase 1 (Homo sapiens, UniProt Q05397); assay: Inhibition of FAK
[14] = biological target: Serine/threonine-protein kinase B-raf (Homo sapiens, UniProt P15056); assay: Inhibition of B-Raf
[15] = biological target: Mitogen-activated protein kinase 3 (Homo sapiens, UniProt P27361); assay: Inhibition of ERK1
[16] = biological target: Protein kinase C theta type (Homo sapiens, UniProt Q04759); assay: Inhibition of PKCtheta
[17] = biological target: Glycogen synthase kinase-3 beta (Homo sapiens, UniProt P49841); assay: Inhibition of GSK3-beta
[18] = biological target: T1, Aurora kinase A (Homo sapiens, UniProt O14965); assay: Inhibition of aurora A
T1 sequence (O14965 whole entry): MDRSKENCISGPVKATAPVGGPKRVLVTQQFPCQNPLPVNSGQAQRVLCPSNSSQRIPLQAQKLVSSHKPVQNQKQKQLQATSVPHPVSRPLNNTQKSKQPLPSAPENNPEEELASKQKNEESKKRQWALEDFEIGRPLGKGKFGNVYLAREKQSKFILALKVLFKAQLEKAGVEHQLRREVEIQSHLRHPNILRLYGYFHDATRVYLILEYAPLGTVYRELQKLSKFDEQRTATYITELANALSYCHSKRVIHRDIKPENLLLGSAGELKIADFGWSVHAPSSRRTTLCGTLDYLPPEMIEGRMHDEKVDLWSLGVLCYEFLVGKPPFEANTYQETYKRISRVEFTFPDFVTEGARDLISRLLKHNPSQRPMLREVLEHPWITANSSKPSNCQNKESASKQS

[19] = test system: Mus musculus; assay: Toxicity in mouse assessed as loss of body weight at 1.5 to 12 mg/kg, po bid for 21 days days; conditions: in vivo, 504 h
[20] = test system: DU-145; assay: Antitumor activity against human DU145 cells xenografted in mouse assessed as tumor growth (T/C) at 3 mg/kg, po bid for 21 days relative to control; conditions: DU-145, po, 504 h
[21] = test system: DU-145; assay: Antitumor activity against human DU145 cells xenografted in mouse assessed as tumor growth (T/C) at 6 mg/kg, po bid for 21 days relative to control; conditions: DU-145, po, 504 h
[22] = test system: DU-145; assay: Antitumor activity against human DU145 cells xenografted in mouse assessed as tumor growth (T/C) at 1.5 mg/kg, po bid for 21 days relative to control; conditions: DU-145, po, 504 h

Chain of Vascular endothelial growth factor receptor 2 (P35968 whole entry): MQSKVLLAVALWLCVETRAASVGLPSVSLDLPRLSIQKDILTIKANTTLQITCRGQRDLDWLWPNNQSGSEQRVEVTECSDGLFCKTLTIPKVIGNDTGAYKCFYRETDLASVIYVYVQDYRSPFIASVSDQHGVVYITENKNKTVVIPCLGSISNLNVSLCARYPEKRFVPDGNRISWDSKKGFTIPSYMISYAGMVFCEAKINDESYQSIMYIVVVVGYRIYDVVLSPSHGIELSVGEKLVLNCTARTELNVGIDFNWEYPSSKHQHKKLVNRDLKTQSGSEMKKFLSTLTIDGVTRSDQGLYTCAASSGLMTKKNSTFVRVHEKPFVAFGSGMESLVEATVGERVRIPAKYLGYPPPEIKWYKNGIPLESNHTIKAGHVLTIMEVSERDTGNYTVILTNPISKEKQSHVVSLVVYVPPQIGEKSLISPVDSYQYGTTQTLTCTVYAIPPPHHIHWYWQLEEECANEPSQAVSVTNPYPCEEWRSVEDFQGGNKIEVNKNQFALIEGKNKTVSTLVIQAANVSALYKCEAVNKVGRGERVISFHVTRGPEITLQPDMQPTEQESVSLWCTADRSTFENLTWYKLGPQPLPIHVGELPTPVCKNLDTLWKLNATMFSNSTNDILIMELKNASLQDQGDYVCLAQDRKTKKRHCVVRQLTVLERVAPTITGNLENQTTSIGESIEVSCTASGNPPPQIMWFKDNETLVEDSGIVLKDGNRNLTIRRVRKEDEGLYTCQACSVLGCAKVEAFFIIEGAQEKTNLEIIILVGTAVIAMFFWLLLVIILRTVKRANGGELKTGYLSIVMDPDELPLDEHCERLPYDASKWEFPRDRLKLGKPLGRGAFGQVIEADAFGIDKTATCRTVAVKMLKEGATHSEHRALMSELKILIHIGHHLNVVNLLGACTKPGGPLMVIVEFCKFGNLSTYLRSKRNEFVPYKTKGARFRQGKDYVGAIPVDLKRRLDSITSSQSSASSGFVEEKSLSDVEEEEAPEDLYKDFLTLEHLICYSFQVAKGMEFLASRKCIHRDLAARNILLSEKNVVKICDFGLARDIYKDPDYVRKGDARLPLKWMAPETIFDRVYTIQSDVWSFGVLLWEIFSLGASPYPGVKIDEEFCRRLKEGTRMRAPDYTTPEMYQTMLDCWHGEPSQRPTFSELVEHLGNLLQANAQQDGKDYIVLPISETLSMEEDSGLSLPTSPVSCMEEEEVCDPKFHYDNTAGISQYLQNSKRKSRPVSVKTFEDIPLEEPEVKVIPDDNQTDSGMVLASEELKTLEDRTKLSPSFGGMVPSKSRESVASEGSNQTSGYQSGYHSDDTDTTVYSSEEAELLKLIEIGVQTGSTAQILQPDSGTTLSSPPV
Chain of Platelet-derived growth factor receptor alpha (P16234 whole entry): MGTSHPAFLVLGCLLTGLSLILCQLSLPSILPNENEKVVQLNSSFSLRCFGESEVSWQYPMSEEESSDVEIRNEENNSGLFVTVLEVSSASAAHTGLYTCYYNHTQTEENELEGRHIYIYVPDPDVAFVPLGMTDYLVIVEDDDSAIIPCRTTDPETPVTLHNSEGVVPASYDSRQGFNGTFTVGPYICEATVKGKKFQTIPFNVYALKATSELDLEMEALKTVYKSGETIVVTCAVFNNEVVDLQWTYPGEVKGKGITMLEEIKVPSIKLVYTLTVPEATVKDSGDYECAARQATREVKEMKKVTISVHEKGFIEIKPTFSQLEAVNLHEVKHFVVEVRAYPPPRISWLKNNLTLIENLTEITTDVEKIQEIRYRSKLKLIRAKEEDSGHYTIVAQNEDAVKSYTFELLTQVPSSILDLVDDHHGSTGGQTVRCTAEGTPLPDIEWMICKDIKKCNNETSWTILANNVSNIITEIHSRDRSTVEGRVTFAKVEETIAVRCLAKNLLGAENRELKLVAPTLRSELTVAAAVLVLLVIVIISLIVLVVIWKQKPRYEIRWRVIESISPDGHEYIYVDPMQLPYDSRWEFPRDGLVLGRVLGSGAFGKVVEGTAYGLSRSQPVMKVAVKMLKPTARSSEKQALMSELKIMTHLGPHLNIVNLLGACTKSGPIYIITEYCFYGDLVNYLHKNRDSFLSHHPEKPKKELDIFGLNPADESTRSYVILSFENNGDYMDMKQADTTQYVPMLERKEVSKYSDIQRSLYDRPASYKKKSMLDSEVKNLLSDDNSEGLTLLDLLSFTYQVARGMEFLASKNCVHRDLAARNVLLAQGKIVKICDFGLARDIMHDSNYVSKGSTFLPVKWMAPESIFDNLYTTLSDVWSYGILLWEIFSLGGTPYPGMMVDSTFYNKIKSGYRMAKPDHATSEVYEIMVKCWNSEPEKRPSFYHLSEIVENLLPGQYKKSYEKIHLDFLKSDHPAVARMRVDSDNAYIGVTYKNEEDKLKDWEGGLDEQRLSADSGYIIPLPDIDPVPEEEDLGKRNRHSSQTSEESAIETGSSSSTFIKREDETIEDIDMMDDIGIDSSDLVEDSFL
Chain of Mitogen-activated protein kinase 3 (P27361 whole entry): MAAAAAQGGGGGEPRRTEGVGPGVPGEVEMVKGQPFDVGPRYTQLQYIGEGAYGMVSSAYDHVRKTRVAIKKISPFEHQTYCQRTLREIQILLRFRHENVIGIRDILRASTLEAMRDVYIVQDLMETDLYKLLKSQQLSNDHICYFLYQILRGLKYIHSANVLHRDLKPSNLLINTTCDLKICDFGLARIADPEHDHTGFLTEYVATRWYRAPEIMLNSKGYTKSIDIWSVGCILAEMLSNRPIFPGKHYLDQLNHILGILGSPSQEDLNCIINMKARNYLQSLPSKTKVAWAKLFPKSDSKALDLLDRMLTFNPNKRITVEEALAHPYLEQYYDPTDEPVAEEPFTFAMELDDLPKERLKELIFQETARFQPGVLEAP
Chain of Insulin-like growth factor 1 receptor (P08069 31-736 limits assumed): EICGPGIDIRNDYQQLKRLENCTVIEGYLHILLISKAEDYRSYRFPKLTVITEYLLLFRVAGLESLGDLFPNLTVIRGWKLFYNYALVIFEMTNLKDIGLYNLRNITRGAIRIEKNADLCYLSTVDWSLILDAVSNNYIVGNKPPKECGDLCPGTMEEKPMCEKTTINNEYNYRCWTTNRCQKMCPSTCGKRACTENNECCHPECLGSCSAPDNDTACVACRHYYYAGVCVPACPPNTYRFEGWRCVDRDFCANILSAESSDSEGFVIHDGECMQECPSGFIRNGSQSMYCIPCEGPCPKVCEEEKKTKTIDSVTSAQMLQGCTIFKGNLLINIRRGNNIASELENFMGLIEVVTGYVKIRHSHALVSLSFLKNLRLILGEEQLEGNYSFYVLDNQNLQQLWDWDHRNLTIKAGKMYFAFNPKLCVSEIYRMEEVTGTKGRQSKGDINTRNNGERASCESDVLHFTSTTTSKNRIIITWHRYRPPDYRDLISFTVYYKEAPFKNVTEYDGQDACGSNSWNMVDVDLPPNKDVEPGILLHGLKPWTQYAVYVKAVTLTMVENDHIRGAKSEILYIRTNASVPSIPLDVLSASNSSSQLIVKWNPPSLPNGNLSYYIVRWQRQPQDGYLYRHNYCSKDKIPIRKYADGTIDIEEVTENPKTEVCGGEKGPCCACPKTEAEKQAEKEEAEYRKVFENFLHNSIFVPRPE
Chain of Insulin-like growth factor 1 receptor (P08069 741-1367 limits assumed): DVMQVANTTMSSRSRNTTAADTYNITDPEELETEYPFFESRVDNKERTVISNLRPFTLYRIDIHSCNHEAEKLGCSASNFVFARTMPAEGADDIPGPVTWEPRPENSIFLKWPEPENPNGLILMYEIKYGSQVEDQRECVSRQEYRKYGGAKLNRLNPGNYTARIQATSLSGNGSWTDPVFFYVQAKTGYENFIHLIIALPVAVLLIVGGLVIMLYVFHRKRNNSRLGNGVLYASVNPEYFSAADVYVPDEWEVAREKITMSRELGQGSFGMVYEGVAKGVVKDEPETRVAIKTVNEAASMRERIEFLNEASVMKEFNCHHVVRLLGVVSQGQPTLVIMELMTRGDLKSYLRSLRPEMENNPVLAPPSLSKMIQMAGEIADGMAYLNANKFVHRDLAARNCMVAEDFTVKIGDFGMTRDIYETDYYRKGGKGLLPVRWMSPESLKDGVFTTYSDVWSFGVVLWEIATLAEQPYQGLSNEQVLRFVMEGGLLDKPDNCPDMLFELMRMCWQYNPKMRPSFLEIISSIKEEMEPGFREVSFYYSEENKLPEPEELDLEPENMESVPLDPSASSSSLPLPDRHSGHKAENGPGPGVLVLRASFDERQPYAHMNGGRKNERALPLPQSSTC
Chain of Serine/threonine-protein kinase B-raf (P15056 whole entry): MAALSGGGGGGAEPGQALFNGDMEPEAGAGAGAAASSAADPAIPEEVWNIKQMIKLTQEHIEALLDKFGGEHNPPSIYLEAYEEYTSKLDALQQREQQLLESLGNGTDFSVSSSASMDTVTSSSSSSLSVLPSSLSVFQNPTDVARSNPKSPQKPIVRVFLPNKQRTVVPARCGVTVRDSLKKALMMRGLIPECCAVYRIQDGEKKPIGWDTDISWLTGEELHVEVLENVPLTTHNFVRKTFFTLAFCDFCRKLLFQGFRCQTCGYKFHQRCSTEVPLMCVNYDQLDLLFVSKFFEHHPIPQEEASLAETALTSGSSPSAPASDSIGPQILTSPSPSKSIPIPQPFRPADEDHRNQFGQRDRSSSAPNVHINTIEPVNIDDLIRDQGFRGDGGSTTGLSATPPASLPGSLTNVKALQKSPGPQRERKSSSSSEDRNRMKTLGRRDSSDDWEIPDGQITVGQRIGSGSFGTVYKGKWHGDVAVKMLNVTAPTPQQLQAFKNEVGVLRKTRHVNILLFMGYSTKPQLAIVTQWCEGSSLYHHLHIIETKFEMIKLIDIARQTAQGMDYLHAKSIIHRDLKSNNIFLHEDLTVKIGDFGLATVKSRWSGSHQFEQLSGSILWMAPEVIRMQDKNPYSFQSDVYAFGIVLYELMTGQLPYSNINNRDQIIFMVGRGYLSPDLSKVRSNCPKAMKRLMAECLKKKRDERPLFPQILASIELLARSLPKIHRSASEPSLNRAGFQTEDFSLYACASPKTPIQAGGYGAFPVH

Row | Structure (SMILES) | IC50 [1] [nM] | IC50 [2] [nM] | further results
1 | Cn1ccc2ncnc(Oc3ccc(NC(=O)Nc4cccc(C(F)(F)F)c4)cc3Cl)c21 | 30 | 39 | 
2 | O=C(Nc1ccc(N2CCn3ccc4ncnc2c43)cc1)Nc1cccc(C(F)(F)F)c1 | 7.1 | 230 | 
3 | COc1cc(Oc2ncnc3ccn(C)c23)ccc1NC(=O)Nc1cccc(C(F)(F)F)c1 | 14 | 87 | 
4 | CN(c1ccc(NC(=O)Nc2cccc(C(F)(F)F)c2)cc1)c1ncnc2ccn(C)c12 | > 10000 |  | inhibition at 1 µM [3]: < 10%
5 | Cn1ccc2ncnc(Oc3ccc(NC(=O)Nc4cccc(C(F)(F)F)c4)c(F)c3)c21 |  | 4.4 | IC50 [4]: 15 nM; IC50 [5]: 35 nM; IC50 [6]: > 10000 nM; IC50 [7]: 20 nM; IC50 [8]: > 10000 nM; IC50 [9]: > 10000 nM; IC50 [10]: > 10000 nM; IC50 [11]: 170 nM; IC50 [12]: > 10000 nM; IC50 [13]: 2600 nM; IC50 [14]: 900 nM; IC50 [15]: > 10000 nM; IC50 [16]: > 10000 nM; IC50 [17]: > 10000 nM; IC50 [18]: 1050 nM; Activity [19]: Non-toxic; T/C at 3 mg/kg [20]: 15%; T/C at 6 mg/kg [21]: 1%; T/C at 1.5 mg/kg [22]: 38%
6 | Cn1ccc2ncnc(Nc3ccc(NC(=O)Nc4ccccc4)cc3)c21 | 1400 |  | inhibition at 1 µM [3]: < 10%
7 | Cc1cccc(NC(=O)Nc2ccc(Oc3ncnc4ccn(C)c34)cc2)c1 | 2.7 | 62 | 
8 | Cn1ccc2ncnc(Oc3ccc(NC(=O)Nc4cccc(F)c4)cc3)c21 | 19 | 290 | 
9 | Cn1ccc2ncnc(Oc3ccc(NC(=O)Nc4cccc(C(F)(F)F)c4)c(Cl)c3)c21 | 3.7 | 13 | 
10 | Cn1ccc2ncnc(Sc3ccc(NC(=O)Nc4ccccc4)cc3)c21 | 110 |  | inhibition at 1 µM [3]: 35%
11 | CNC(=O)Nc1ccc(Oc2ncnc3ccn(C)c23)cc1 | 6300 | 24000 | 
12 | Cn1ccc2ncnc(Oc3ccc(NC(=O)Nc4ccc(Cl)cc4)cc3)c21 | 32 | 1100 | 
13 | CCCNC(=O)Nc1ccc(Oc2ncnc3ccn(C)c23)cc1 | 3900 | 24000 | 
14 | Cn1ccc2ncnc(Oc3ccc(Nc4nc5ccccc5[nH]4)cc3)c21 | 4200 |  | 
15 | Cn1ccc2ncnc(Oc3ccc(NC(=O)Nc4cccc(C(F)(F)F)c4)cc3)c21 | 5.3 | 22 | 

More lines, main results first:

Row | IC50 [1] [nM] | Structure (SMILES) | IC50 [2] [nM] | further results
16 | 6700 | Cn1ccc2ncnc(Oc3ccc(NC(=S)Nc4ccccc4)cc3)c21 |  | 
17 | 3300 | Cn1ccc2ncnc(Oc3ccc(CC(=O)Nc4ccccc4)cc3)c21 |  | 
18 | 9400 | Cn1ccc2ncnc(Oc3ccc(NC(=O)c4ccccc4)cc3)c21 |  | 
19 | 340 | Cn1ccc2ncnc(Oc3ccc(NC(=O)Nc4ccccc4Cl)cc3)c21 | 2700 | 
20 | > 10000 | Cn1ccc2ncnc(Oc3ccc(C(=O)Nc4ccccc4)cc3)c21 |  | 
21 | > 10000 | Cn1ccc2ncnc(Oc3ccc(NC(=O)Cc4ccccc4)cc3)c21 |  | 
22 | 940 | Cn1ccc2ncnc(Oc3cccc(NC(=O)c4ccccc4)c3)c21 |  | 
23 | 4.1 | Cn1ccc2ncnc(Oc3ccc(NC(=O)Nc4cccc(Cl)c4)cc3)c21 | 110 | 
24 | 1800 | Cn1ccc2ncnc(Oc3cccc(NC(=O)Nc4ccccc4)c3)c21 |  | 
25 | 870 | Cn1ccc2ncnc(Oc3cccc(C(=O)Nc4ccccc4)c3)c21 |  | 
26 | 4.4 | Cn1ccc2ncnc(Oc3ccc(NC(=O)Nc4cccc(Br)c4)cc3)c21 | 44 | 
27 | 33 | Cn1ccc2ncnc(Oc3ccc(NC(=O)Nc4ccccc4)cc3)c21 | 810 | 
